# Assay results taken from ChEMBL document CHEMBL3992516, “Synthesis and SAR evaluation of novel thioridazine derivatives active against drug-resistant tuberculosis” (Eur J Med Chem, 2017).
# Calls of active or inactive are those of the source. The calls are words filed in the database; no cut-off is given here.
# Legend:
# [1] = system: Mycobacterium tuberculosis; assay: Antimycobacterial activity against Mycobacterium tuberculosis MC2 7000 by microplate alamar blue assay; type: functional
# [2] = system: Mycolicibacterium smegmatis; assay: Antimycobacterial activity against Mycobacterium smegmatis MC2 155 ATCC 700084 by microplate alamar blue assay; type: functional
# [3] = system: Mycobacterium tuberculosis; assay: Antimycobacterial activity against Mycobacterium tuberculosis H37Rv ATCC 27294 incubated for 7 days measured 24 hrs post incubation by resazurin microtiter assay; type: functional
# MRC5 = assay: Cytotoxicity against human MRC5 cells assessed as decrease in cell viability after 24 hrs by resazurin reduction assay; type: cell-based; conditions: MRC5, 24 h
# [4] = system: Mycolicibacterium smegmatis; assay: Inhibition of efflux pump in Mycobacterium smegmatis assessed as increase in accumulation of ethidium bromide at 0.25 times MIC measured every min for 60 mins by fluorimetric method
# [5] = Selectivity index, ratio of IC50 for human MRC5 cells to MIC90 for drug-succeptible Mycobacterium tuberculosis CF73; type: toxicity; conditions: read-out: Selectivity Index
# J774 = assay: Cytotoxicity against mouse J774 cells assessed as decrease in cell viability after 24 hrs by resazurin reduction assay; type: cell-based; conditions: J774, 24 h
# [6] = system: Mycobacterium tuberculosis; assay: Antimycobacterial activity against drug-succeptible Mycobacterium tuberculosis CF73 incubated for 7 days measured 24 hrs post incubation by resazurin microtiter assay; type: functional
compound,measurement,setting,value
c1ccc(N2CCN(CCCN3c4ccccc4Sc4ccccc43)CC2)cc1,MIC,[1],> 64 µg/mL
same,MIC,[2],> 64 µg/mL
CSc1ccc2c(c1)N(CCC1CCCCN1C(C)C)c1ccccc1S2 (stereo unspecified),MIC,[1],> 64 µg/mL
same,MIC,[2],> 64 µg/mL
Clc1ccc2c(c1)N(CCCN1CCN(c3ccccc3)CC1)c1ccccc1S2,MIC,[1],> 64 µg/mL
same,MIC,[2],> 64 µg/mL
Clc1ccc2c(c1)N(CCC1CCCCN1)c1ccccc1S2 (stereo unspecified),MIC90,[3],26 µg/mL
same,IC50,MRC5,10 µg/mL
same,inhibition,[4],inactive
same,selectivity ratio,[5],0.9
same,IC50,J774,10.7 µg/mL
same,MIC,[1],4 µg/mL
same,MIC,[2],16 µg/mL
same,MIC90,[6],11 µg/mL
CO[C@H]1/C=C/O[C@@]2(C)Oc3c(C)c(O)c4c(O)c(c(/C=N/N5CCN(C)CC5)c(O)c4c3C2=O)NC(=O)/C(C)=C\C=C\[C@H](C)[C@H](O)[C@@H](C)[C@@H](O)[C@@H](C)[C@H](OC(C)=O)[C@@H]1C [RIFAMPIN],MIC90,[3],0.3 µg/mL
same,MIC,[1],0.25 µg/mL
same,MIC90,[6],8 µg/mL
c1ccc2c(c1)ncn2CCC1CCCCN1 (stereo unspecified),MIC90,[3],100 µg/mL
same,MIC,[1],> 64 µg/mL
same,MIC,[2],> 64 µg/mL
same,MIC90,[6],> 100 µg/mL
CN1CCCCC1CCn1cnc2ccccc21 (stereo unspecified),MIC,[1],> 64 µg/mL
same,MIC,[2],> 64 µg/mL
CSc1ccc2c(c1)N(C(=O)CN1CCN(C)CC1)c1ccccc1S2,MIC,[1],> 64 µg/mL
same,MIC,[2],> 64 µg/mL
CSc1ccc2c(c1)N(CCCN1CCSCC1)c1ccccc1S2,MIC,[1],> 64 µg/mL
same,MIC,[2],> 64 µg/mL
CCCN1CCCCC1CCN1c2ccccc2Sc2ccc(SC)cc21 (stereo unspecified),MIC90,[3],45 µg/mL
same,MIC,[1],64 µg/mL
same,MIC,[2],> 64 µg/mL
CSc1ccc2c(c1)N(CCC1CCCCN1)c1ccccc1S2 (stereo unspecified),MIC90,[3],100 µg/mL
same,MIC,[1],8 µg/mL
same,MIC,[2],16 µg/mL
same,MIC90,[6],> 100 µg/mL
CN1CCCCC1CCN1c2ccccc2Sc2ccc(Cl)cc21 (stereo unspecified),MIC90,[3],19 µg/mL
same,IC50,MRC5,13 µg/mL
same,selectivity ratio,[5],0.8
same,IC50,J774,8.4 µg/mL
same,MIC,[1],8 µg/mL
same,MIC,[2],16 µg/mL
same,MIC90,[6],16 µg/mL
CSc1ccc2c(c1)N(CCC1CCCCN1C)c1ccccc1S2 (stereo unspecified) [THIORIDAZINE],MIC90,[3],10 µg/mL
same,IC50,MRC5,8.2 µg/mL
same,selectivity ratio,[5],1
same,IC50,J774,4.1 µg/mL
same,MIC,[1],8 µg/mL
same,MIC,[2],16 µg/mL
same,MIC90,[6],8 µg/mL
Clc1ccc2c(c1)N(CCCN1CCSCC1)c1ccccc1S2,MIC,[1],> 64 µg/mL
same,MIC,[2],> 64 µg/mL
CSc1ccc2c(c1)N(CCCN1CCN(c3ccccc3)CC1)c1ccccc1S2,MIC,[1],> 64 µg/mL
same,MIC,[2],> 64 µg/mL
CSc1ccc2c(c1)N(CCCN1CCN(C34CC5CC(CC(C5)C3)C4)CC1)c1ccccc1S2,MIC,[1],64 µg/mL
same,MIC,[2],64 µg/mL
CSc1ccc2c(c1)N(C(=O)CN1CCCCC1)c1ccccc1S2,MIC90,[3],> 100 µg/mL
same,MIC90,[6],> 100 µg/mL
c1ccc2c(c1)ccn2CCC1CCCCN1 (stereo unspecified),MIC90,[3],2.9 µg/mL
same,IC50,MRC5,15 µg/mL
same,inhibition,[4],inactive
same,selectivity ratio,[5],15
same,IC50,J774,7.3 µg/mL
same,MIC,[2],1.6 µg/mL
same,MIC90,[6],1 µg/mL
CSc1ccc2c(c1)N(CCCN1CCN(C)CC1)c1ccccc1S2,MIC90,[3],69 µg/mL
same,inhibition,[4],Active
same,MIC,[1],27 µg/mL
same,MIC,[2],32 µg/mL
same,MIC90,[6],27 µg/mL
CSc1ccc2c(c1)N(CCCN1CCN(C3C4CC5CC(C4)CC3C5)CC1)c1ccccc1S2 (stereo unspecified),MIC90,[3],43 µg/mL
same,MIC,[1],> 64 µg/mL
same,MIC,[2],4 µg/mL
same,MIC90,[6],98 µg/mL
CN1CCCCC1CCn1c2ccccc2c2ccccc21 (stereo unspecified),MIC90,[3],60 µg/mL
same,MIC,[1],64 µg/mL
same,MIC,[2],> 64 µg/mL
same,MIC90,[6],39 µg/mL
NNC(=O)c1ccncc1 [ISONIAZID],MIC90,[3],0.03 µg/mL
same,MIC,[1],0.125 µg/mL
same,MIC,[2],4 µg/mL
same,MIC90,[6],0.03 µg/mL
c1ccc2c(c1)c1ccccc1n2CCC1CCCCN1 (stereo unspecified),MIC,[1],> 64 µg/mL
same,MIC,[2],> 64 µg/mL
CN1CCCCC1CCN1c2ccccc2Sc2ccccc21 (stereo unspecified),MIC90,[3],> 64 µg/mL
same,MIC,[1],16 µg/mL
same,MIC,[2],32 µg/mL
same,MIC90,[6],47 µg/mL
CN1CCN(CCCn2ccc3ccccc32)CC1,MIC,[1],> 64 µg/mL
same,MIC,[2],> 64 µg/mL
CN1CCN(CCCN2c3ccccc3Sc3ccccc32)CC1 [PERAZINE],MIC90,[3],100 µg/mL
same,inhibition,[4],Active
same,MIC,[1],27 µg/mL
same,MIC,[2],64 µg/mL
same,MIC90,[6],> 100 µg/mL
c1ccc2c(c1)Sc1ccccc1N2CCC1CCCCN1 (stereo unspecified),MIC90,[3],> 64 µg/mL
same,MIC,[1],> 64 µg/mL
same,MIC,[2],> 64 µg/mL
same,MIC90,[6],47 µg/mL
CSc1ccc2c(c1)N(CCC1CCCCN1Cc1ccccc1)c1ccccc1S2 (stereo unspecified),MIC90,[3],> 100 µg/mL
same,MIC,[1],8 µg/mL
same,MIC,[2],16 µg/mL
same,MIC90,[6],37 µg/mL
